One assay addresses T1, E. feacium DltA (Enterococcus faecium, UniProt Q3XZT7).
T1 sequence (Q3XZT7 1-504): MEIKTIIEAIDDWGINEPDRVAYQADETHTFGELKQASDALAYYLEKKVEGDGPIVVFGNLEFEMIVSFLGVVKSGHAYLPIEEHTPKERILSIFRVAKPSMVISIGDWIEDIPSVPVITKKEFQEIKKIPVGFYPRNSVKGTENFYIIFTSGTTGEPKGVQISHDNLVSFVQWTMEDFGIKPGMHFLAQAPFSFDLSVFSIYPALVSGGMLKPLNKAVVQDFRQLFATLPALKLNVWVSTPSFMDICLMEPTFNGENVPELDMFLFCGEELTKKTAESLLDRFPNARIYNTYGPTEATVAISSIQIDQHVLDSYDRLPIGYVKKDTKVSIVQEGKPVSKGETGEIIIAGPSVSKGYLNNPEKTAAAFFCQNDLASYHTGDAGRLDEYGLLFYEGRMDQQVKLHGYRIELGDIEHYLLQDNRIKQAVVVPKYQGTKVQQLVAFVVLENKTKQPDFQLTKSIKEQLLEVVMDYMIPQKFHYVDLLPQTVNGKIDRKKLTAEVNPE
Kind of assay: in vitro DltA activity assay (luminescence, IC50 determination). Format: biochemical. The procedure: (§1) The effect of the compounds of the invention on DltA enzymes has been based on the measure of their inhibition of DltA activity in vitro. To this end, recombinant proteins DltA were expressed and purified after cloning of the genes of S. aureus, E. faecalis, E. faecium and S. agalactiae as described thereafter. The capacity of the compounds of the invention to inhibit DltA enzymatic activity was assessed using the DltA assays as described below: • The dltA gene was amplified from chromosomal DNA of S. aureus, E. faecalis, E. faecium and S. agalactiae and introduced into E. coli BL21 (Invitrogen, Carlsbad, CA) following manufacturer's instruction. Bacteria were grown at 37°C under aerobic conditions and isopropyl-beta-D-thiogalactopyranoside (IPTG) was added to 0.5-1 mM when OD600 of the bacterial culture had reached 0.5. After a further incubation for 3 hours, cells were harvested by centrifugation. Purification of the recombinant DltA protein was performed by affinity chromatography on nickel-nitrilotriacetic acid (Ni-NTA) column following manufacturer's instructions (Qiagen). Fractions containing recombinant DltA protein were adjusted to 50% glycerol and stored at -20°C until use.
(§2) The binding potency of the inhibitors against DltA enzyme was assessed by IC50 determination in an in vitro DltA activity assay. The assay buffer "AB" contained 50 mM Hepes pH8.0, 10mM MgCl2, 50mM KCI, 0.012% Triton-X100, 10mM DTT and 100nM Myelin-basic protein. The following components were added in a white polystyrene Costar plate up to a final volume of 30µL: 3µL DMSO, or inhibitor dissolved in DMSO and 27µL DltA enzyme in AB. After 30min of preincubation at room temperature, 30µL of Substrates mix in AB were added in each well to a final volume of 60µL. This reaction mixture was then composed of DltA (produced in house from S. aureus, E. faecalis, E. faecium and S. agalactiae), 0.5mM D-Alanine (Sigma), 0.5-5µM ATP (Sigma) and 0.05 u/ml inorganic pyrophosphatase (Sigma) in assay buffer. After typically 1-2hours of incubation at room temperature (conversion rate around 30%), 30µL of the revelation mix were added to a final volume of 90µL, including the following constituents at the respective final concentrations: 10000 u/ml luciferase (Sigma), 30µM D-luciferin (Sigma), 100µM N-acetylcysteamine (Aldrich). Luminescence intensity was immediately measured on a Fluostar Optima (BMG) (excitation 360nm, emission 520nm) and converted into inhibition percentages.
(§3) For compounds interfering with the luminescent signal (quenching), the same experiment without DltA enzyme was performed to allow quenching determination and correction.

A further assay has as its target T2, S. aureus DltA (Staphylococcus aureus, UniProt Q2FZW6).
T2 construct: made in house; host or cells: E. coli BL21
T2 sequence (Q2FZW6 1-485): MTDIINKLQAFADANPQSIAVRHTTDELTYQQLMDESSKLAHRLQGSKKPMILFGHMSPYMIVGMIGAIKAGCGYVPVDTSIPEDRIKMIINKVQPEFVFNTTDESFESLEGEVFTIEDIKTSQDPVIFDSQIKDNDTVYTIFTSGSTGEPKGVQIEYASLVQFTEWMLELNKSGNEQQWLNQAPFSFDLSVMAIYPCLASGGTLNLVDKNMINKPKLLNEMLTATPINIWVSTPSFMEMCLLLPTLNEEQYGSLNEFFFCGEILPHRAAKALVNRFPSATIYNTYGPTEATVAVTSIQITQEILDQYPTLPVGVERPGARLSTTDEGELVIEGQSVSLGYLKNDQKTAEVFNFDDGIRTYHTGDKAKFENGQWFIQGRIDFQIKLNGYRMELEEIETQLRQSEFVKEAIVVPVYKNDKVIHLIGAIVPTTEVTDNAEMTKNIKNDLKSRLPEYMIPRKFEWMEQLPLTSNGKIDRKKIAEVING
The description is as above. Format: biochemical. The method, then: as §1, §2, §3

Another assay deals with T3, E. feacalis DltA (Enterococcus faecalis, UniProt Q830N0).
T3 sequence (Q830N0 1-506): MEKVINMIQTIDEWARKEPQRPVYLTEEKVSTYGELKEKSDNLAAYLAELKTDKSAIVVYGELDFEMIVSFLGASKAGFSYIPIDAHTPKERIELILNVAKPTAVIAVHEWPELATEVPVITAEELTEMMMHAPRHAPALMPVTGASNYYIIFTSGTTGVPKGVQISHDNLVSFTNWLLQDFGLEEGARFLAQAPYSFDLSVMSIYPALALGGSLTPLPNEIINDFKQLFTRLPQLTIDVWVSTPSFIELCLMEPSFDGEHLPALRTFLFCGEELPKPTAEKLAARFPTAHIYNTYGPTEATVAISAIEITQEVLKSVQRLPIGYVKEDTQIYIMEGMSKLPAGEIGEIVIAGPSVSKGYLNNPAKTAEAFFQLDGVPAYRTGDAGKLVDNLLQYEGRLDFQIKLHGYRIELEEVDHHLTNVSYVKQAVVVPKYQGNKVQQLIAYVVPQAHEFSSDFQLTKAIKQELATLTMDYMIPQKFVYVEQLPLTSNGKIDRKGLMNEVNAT
Kind of assay: biochemical. The procedure:
as §1, with “To” for “The effect of the compounds of the invention on DltA enzymes has been based on the measure of their inhibition of DltA activity in vitro. To”
as §2, §3

The next assay addresses T4, S. Agalactiae DltA (Streptococcus agalactiae serotype III, UniProt Q8VM67).
T4 sequence (Q8VM67 1-511): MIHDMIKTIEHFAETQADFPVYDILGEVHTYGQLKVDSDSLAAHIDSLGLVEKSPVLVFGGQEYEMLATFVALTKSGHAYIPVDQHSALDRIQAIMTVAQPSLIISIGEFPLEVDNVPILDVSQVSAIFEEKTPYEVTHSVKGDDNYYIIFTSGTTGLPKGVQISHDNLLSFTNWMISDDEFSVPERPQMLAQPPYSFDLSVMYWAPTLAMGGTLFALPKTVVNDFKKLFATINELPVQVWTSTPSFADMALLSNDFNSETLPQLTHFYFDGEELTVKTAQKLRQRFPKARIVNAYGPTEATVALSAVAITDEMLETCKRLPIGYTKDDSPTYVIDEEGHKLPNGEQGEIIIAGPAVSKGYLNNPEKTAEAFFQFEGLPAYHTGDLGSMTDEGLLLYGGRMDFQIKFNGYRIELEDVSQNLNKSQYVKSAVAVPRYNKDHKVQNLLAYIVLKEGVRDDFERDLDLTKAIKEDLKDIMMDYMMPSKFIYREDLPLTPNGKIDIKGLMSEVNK
The assay can be described thus: biochemical. The procedure: as §1, with “To” for “The effect of the compounds of the invention on DltA enzymes has been based on the measure of their inhibition of DltA activity in vitro. To”
as §2, §3

The mark [1] stands for this setting: recombinant DltA, 30min preincubation at room temperature, 0.5mM D-Alanine, 0.5-5µM ATP, read-out: E. feacium DltA IC50.

Where a name gives a salt, the structure may show the parent alone. Read-outs that look alike come from different tables or passages of the source.

With `O=c1[nH]cnc2c(-c3ccc4c(c3)ncn4C3CCCCC3)sc(N3CC4CNCC4(CO)C3)c12` (stereo not shown) [Example 34, 7-(1-cyclohexyl-1H-benzoimidazol-5-yl)-5-hydroxymethyl-hexahydro-pyrrolo[3,4-c]pyrrol-2-yl)-3H-thieno[3,4-d]pyrimidin-4-one hydrochloride], the concentration for half-maximal inhibition (IC50) on E. feacium DltA is 61 nM; against S. aureus DltA, 27 nM; against E. feacalis DltA it was 14 nM; at S. Agalactiae DltA, 400 nM.
Take `O=c1[nH]cnc2c(-c3ccc4c(c3)ncn4C3CCCCC3)sc(N3C[C@H](CO)[C@@H](CO)C3)c12` [Example 35, 5-((3R,4R)-3,4-Bis-hydroxymethyl-pyrrolidin-1-yl)-7-(1-cyclohexyl-1H-benzoimidazol-5-yl)-3H-thieno[3,4-d]pyrimidin-4-one]: the IC50 at E. feacium DltA (setting [1]) was determined as 93 nM; against S. aureus DltA, 54 nM; against E. feacalis DltA, 39 nM; against S. Agalactiae DltA, 870 nM.
On the same counts, the results for `O=c1[nH]cnc2c(-c3ccc4c(c3)ncn4C3CCCCC3)sc(C3=CCNCC3)c12` [Example 37, 7-(1-cyclohexyl-1H-benzoimidazol-5-yl)-5-(1,2,3,6-tetrahydro-pyridin-4-yl)-3H-thieno[3,4-d]pyrimidin-4-one hydrochloride] are 42 nM, 68 nM, 25 nM and 660 nM.
With `CN1CC=C(c2sc(-c3ccc4c(c3)ncn4C3CCCCC3)c3nc[nH]c(=O)c23)CC1` [Example 38, hydrochloride], the half-maximal inhibitory concentration (IC50) at E. feacium DltA was found to be 130 nM; against S. aureus DltA, 130 nM; on E. feacalis DltA, 42 nM; against S. Agalactiae DltA, 910 nM.
As to `CCn1cnc2cc(-c3sc(N4CC[C@H](CO)C4)c4c(=O)[nH]cnc34)ccc21` [Example 45, 7-(1-ethyl-1H-benzoimidazol-5-yl)-5-((S)-3-hydroxymethyl-pyrrolidin-1-yl)-3H-thieno[3,4-d]pyrimidin-4-one], the IC50 on E. feacium DltA (setting [1]) stood at 390 nM; against S. aureus DltA, 130 nM; against E. feacalis DltA, 70 nM; against S. Agalactiae DltA it was 3400 nM.
For `COCCn1cnc2cc(-c3sc(N4CC[C@H](CO)C4)c4c(=O)[nH]cnc34)ccc21` [Example 46, 5-((S)-3-hydroxymethyl-pyrrolidin-1-yl)-7-[1-(2-methoxy-ethyl)-1H-benzoimidazol-5-yl]-3H-thieno[3,4-d]pyrimidin-4-one], the IC50 on E. feacium DltA (setting [1]) stood at 440 nM; on S. aureus DltA it was 150 nM; on E. feacalis DltA, 150 nM; against S. Agalactiae DltA it was 5100 nM.
As to `O=c1[nH]cnc2c(-c3ccc4c(c3)ncn4[C@@H]3CCCC[C@H]3F)sc(N3CC[C@H](CO)C3)c12` [Example 47, 7-[1-((1R,2R)-2-fluoro-cyclohexyl)-1H-benzoimidazol-5-yl]-5-((S)-3-hydroxymethyl-pyrrolidin-1-yl)-3H-thieno[3,4-d]pyrimidin-4-one], the IC50 is 110 nM at E. feacium DltA (setting [1]), 77 nM against S. aureus DltA, 46 nM at E. feacalis DltA and 2600 nM at S. Agalactiae DltA.
Taken in the same sequence, the figures for `O=c1[nH]cnc2c(-c3ccc4c(c3)ncn4C3CCCOC3)sc(N3CC[C@H](CO)C3)c12` (stereo partly drawn) [Example 49, 5-((S)-3-hydroxymethyl-pyrrolidin-1-yl)-7-[1-(tetrahydro-pyran-3-yl)-1-H-benzoimidazol-5-yl]-3H-thieno[3,4-d]pyrimidin-4-one] were 160 nM, 97 nM, 82 nM and 3300 nM.
Taken in the same sequence, the figures for `O=c1[nH]cnc2c1c(CCCO)cn2-c1ccc2c(c1)ncn2C1CCCCC1` [Example 51, 7-(1-Cyclohexyl-1H-benzoimidazol-5-yl)-5-(3-hydroxy-propyl)-3,7-dihydro-pyrrolo[2,3-d]pyrimidin-4-one] were 1200 nM, 1100 nM, 330 nM and 4500 nM.
For `O=c1[nH]cnc2c1c(C1=CCNCC1)cn2-c1ccc2c(c1)ncn2C1CCCCC1` [Example 52, 7-(1-cyclohexyl-1H-benzoimidazol-5-yl)-5-(1,2,3,6-tetrahydro-pyridin-4-yl)-3,7-dihydro-pyrrolo[2,3-d]pyrimidin-4-one hydrochloride], the half-maximal inhibitory concentration (IC50) at E. feacium DltA (setting [1]) was 120 nM; against S. aureus DltA, 150 nM; on E. feacalis DltA, 26 nM; against S. Agalactiae DltA, 350 nM.

By IC50 is commonly meant the concentration needed to halve the response being measured.

The values are drawn from patent publication EP2913333A1 (priority 2014, dated 2015).
